pKi: −log10 of the molar value. Read-outs that look alike come from different tables or passages of the source.
What was measured:
[1] = target: T1, rat liver ornithine decarboxylase (Rattus norvegicus, UniProt P09057); assay: time-dependent inhibition of rat liver ODC (in vitro); assay type: biochemical
T1 construct: rat liver ornithine decarboxylase in vitro; from tissue; host or cells: rat liver
T1 sequence (P09057 1-461): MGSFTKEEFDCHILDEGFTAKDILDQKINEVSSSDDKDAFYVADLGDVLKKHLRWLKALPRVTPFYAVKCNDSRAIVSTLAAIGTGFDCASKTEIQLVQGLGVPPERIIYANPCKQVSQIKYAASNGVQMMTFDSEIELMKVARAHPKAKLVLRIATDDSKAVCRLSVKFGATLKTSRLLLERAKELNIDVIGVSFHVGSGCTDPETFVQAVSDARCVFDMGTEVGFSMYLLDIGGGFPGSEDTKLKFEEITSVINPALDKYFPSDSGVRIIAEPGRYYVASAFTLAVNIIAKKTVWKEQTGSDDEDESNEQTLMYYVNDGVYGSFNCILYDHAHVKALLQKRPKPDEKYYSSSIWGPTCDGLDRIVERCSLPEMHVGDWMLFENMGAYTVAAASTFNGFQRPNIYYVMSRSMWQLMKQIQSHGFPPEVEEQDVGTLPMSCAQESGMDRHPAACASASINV

ornithine decarboxylase = target: T2, ornithine decarboxylase (Rattus norvegicus, UniProt P09057); assay: ODC activity remaining in rat tissues after a single dose (in vivo); design: species or system rats; conditions: single oral dose 200 mg/kg
T2 construct: from tissue; host or cells: rat ventral prostate and thymus
T2 sequence (P09057 1-461): T1 sequence (P09057 1-461)
Procedure: The ODC inhibitory activity of a compound can be determined in vitro by the method described by B. Metcalf et al., J. Am. Chem. Soc., 100, 2551 (1978) and in vivo by the method of C. Danzin, Life Sciences, 24, 519 (1979).
2-Fluoromethyl-2,5-diaminopentanoic acid and 2-fluoromethyl-2,6-diaminohexanoic acid were tested for inhibition of ornithine decarboxylase in rats according to the procedure of C. Danzin et al., Life Sciences, 24, 519 (1979).

[2] = concentration of compound which gives half-maximal rate of inhibition, time-dependent inhibition
[3] = half-life of inhibition at 10 μM inhibitor
[4] = half-life of inhibition at infinite concentration of inhibitor

Structure (SMILES)	pKi [1, 2]	t1/2 at 10 μM [1, 3] [min]	T1/2 [1, 4]	ODC Activity remaining in ventral prostate (ornithine decarboxylase; 3 h) [% Control]	ODC Activity remaining in ventral prostate (ornithine decarboxylase; 6 h) [% Control]	ODC Activity remaining in ventral prostate (ornithine decarboxylase; 12 h) [% Control]	K I [1, 2]	T1/2 [1]	t1/2 at 10 μM [1] [min]
NCCCCC(N)(CF)C(=O)O (centres unmarked) [MFML, 2-fluoromethyl-2,6-diaminohexanoic acid]	3.37	88	2.0 min	66 ± 6	44 ± 10	74 ± 7			
NCCCC(N)(CCl)C(=O)O (centres unmarked) [MCMO, 2-chloromethyl-2,5-diaminopentanoic acid]		22	no apparent saturation				no apparent saturation		
NCCCCC(N)(CCl)C(=O)O (centres unmarked) [MCML, 2-chloromethyl-2,6-diaminohexanoic acid]								no apparent saturation	62
